For assay [1], the system named is M. incognita pre-parasitic J2 larvae. As to the kind of experiment: In vitro nematicidal efficacy of methylketones on M. incognita J2 larvae. The class given is cell-based. Conditions: Meloidogyne incognita, read-out: IC30 M. incognita vs. J2. The protocol: (§1) The example illustrates the surprising nematicidal efficacy of various methylketones. Methylketones of various chain lengths were tested in vitro against C. elegans L1 and L4 larvae and M. incognita pre-parasitic J2 larvae, the dispersal larval stage found in the soil. […] IC30 is defined as the concentration of the methylketone at which 30 percent of the nematodes are killed after an exposure of 4 hours for C. elegans and 24 hours for M. incognita.

Assay [2] relates to C. elegans L1 and L4 larvae. As to the kind of experiment: In vitro nematicidal efficacy of methylketones on C. elegans larvae. The format is cell-based. Conditions: Caenorhabditis elegans. The protocol: as §1
Assay [3] has as its system root knot nematode (M. incognita). As to the kind of experiment: Greenhouse whole plant assay, root knot nematode infection of tomato in sand. The format is in vivo. Conditions: for nematode control (in words): M. incognita, greenhouse, 40 and 8 kg/ha; for % Control: control of nematode-induced galling; for % Galled Roots: soil application before inoculation, harvest 21 days, no compound added: 60. The protocol: (§2) Whole plant assays were used to determine the efficacy of the methylketones on the infection of soybean plants and tomato plants by nematodes, H. glycines and M. incognita, respectively. The seeds were planted in 100 percent sand in two-inch square plastic pots and grown to a sufficient size for treatment. […] Following methylketone treatment, nematodes were inoculated into each pot and for soybeans are then incubated for 28 days before harvest and for tomatoes incubated 21 days before harvest.
(§3) To each of four pots, five milliliters of the appropriate chemical solution is applied to the surface making sure to avoid contact with the base of the plant. Immediately following the chemical application, the pot surface is wetted sufficiently to water in the chemical. One milligram of chemical per four pots is approximately equivalent to one kilogram per hectare of chemical. A standard test uses four replications. For rates above 2 kg/ha, the desired amount of chemical is weighed into a 30 ml vial (example: 8 kg/ha rate=8 mg chemical in 30 ml vial). The chemical is dissolved in 2 ml of an appropriate solvent, generally acetone. For rates below 2 kg/ha, 2 milligrams of chemistry is weighed into the vial and dissolved in 2 ml of the solvent. The appropriate amount of chemical concentrate is then applied into a separate 30 ml vial and solvent is added to bring the volume to 2 ml (example 0.5 kg/ha=0.5 ml of concentrate+1.5 ml solvent). Each dissolved concentrate is then brought to a total of 20 milliliters using 0.05% Triton X-100 surfactant solution.
(§4) Nematode eggs, either SCN or RKN, are added to distilled water to create a concentration of 1000 vermiform eggs per […] of water. At least four hours after chemical treatment the eggs are applied to the treated pots plus non-treated check plants. A small hole about 1 cm deep is punched into the pot surface. One milliliter of the nematode egg slurry is applied into the hole. Immediately afterwards the hole is gently covered. Watering of the test plants is then restricted to a minimum volume needed to prevent wilting for a period of 24 hours. After the 24 hour restricted watering, normal sub-irrigation watering is done for the duration of the test.
The 2-undecanone, 2-tridecanone, and 2-pentadecanone are tested in greenhouse studies against M. incognita infection of tomato roots in sand. […] Shown in Table 2 is a high level of nematicidal activity of various methylketones observed against root knot nematode (M. incognita) inoculated into treated pots containing tomato plants. […] The listed kilograms/hectare (kg/ha) rating is based upon the surface area of the test pots; 1 kg/ha equates to about 1.65 mg compound per kilogram of soil in these assays.

Assay [4] relates to soybean cyst nematode (H. glycines). As to the kind of experiment: Greenhouse whole plant assay, soybean cyst nematode infection of soybean. The class given is in vivo. The following applies: for % Control: relative to the non-treated; for #cysts/plant: soil drench prior to inoculation, harvest 28 days, no compound added: 49. The protocol:
as §2, §3, §4
2-tridecanone was also assayed in the greenhouse for control of soybean cyst nematode (H. glycines) in soybeans (Table 3). Nematode control (#cysts/plant) is observed at 40 kg/ha (96% control relative to the non-treated) and 8 kg/ha (80% control relative to the non-treated) when 2-tridecanone was applied as a soil drench prior to nematode inoculation.

Where [5] appears, read: concentration at which 30 percent of the nematodes are killed, exposure 24 hours, J2 larvae.
The mark [6] stands for this setting: concentration at which 30 percent of the nematodes are killed, exposure 4 hours, L1 larvae, read-out: IC30 C. elegans vs. L1.
[7] abbreviates: concentration at which 30 percent of the nematodes are killed, exposure 4 hours, L4 larvae, read-out: IC30 C. elegans vs. L4.

≈ marks a conversion by molar mass, not a printed value. Like-named read-outs stand apart in the source and are kept apart here.

Take `CCCCCCCCCCC(C)=O` [2-dodecanone]: the IC30 was determined as 50 µg/mL (≈ 271 µM) in assay [1] (setting [5]), 3.2 µg/mL (≈ 17.4 µM) in assay [2] (setting [6]) and 25 µg/mL (≈ 136 µM) in assay [2] (setting [7]).
The corresponding values for `CCCCCC(C)=O` [2-heptanone] are 400 µg/mL (≈ 3500 µM), more than 400 µg/mL and more than 400 µg/mL.
Turning to `CCCCCCCC(C)=O` [2-nonanone], the IC30 in assay [1] (setting [5]) was 200 µg/mL (≈ 1410 µM); in assay [2] (setting [6]), 12.5 µg/mL (≈ 87.9 µM); in assay [2] (setting [7]) it was more than 400 µg/mL.
The corresponding values for `CCCCCCCCCCCCC(C)=O` [2-tetradecanone] are 25 µg/mL (≈ 118 µM), 3.2 µg/mL (≈ 15.1 µM) and more than 100 µg/mL.
Turning to `CCCCCCCCC(C)=O` [2-decanone], the IC30 in assay [1] (setting [5]) was 25 µg/mL (≈ 160 µM); in assay [2] (setting [6]), 6.3 µg/mL (≈ 40.3 µM); in assay [2] (setting [7]), more than 400 µg/mL.
In the case of `CCCCCCCCCCCCCC(C)=O` [2-pentadecanone], the IC30 in assay [1] (setting [5]) was 400 µg/mL (≈ 1770 µM); in assay [2] (setting [6]), 12.5 µg/mL (≈ 55.2 µM); in assay [2] (setting [7]), more than 100 µg/mL. For the same compound, the “nematode control (in words)” value in assay [3] is given as “demonstrated nematode control”. Further, the “% Control” value in assay [3] (rate 8 kg/ha) was 25%; in assay [3] (rate 40 kg/ha), 37%. In addition, the “% Galled Roots” value was determined as 45% in assay [3] (rate 8 kg/ha) and 38% in assay [3] (rate 40 kg/ha).
On to `CCCCCCCCCCCC(C)=O` [2-tridecanone], for which the values for the IC30 in assay [1] (setting [5]), in assay [2] (setting [6]) and in assay [2] (setting [7]) were 50 µg/mL (≈ 252 µM), 3.2 µg/mL (≈ 16.1 µM) and 12.5 µg/mL (≈ 63 µM), respectively. In addition, the “% Control” value in assay [4] (rate 8 kg/ha) stood at 80%; in assay [4] (rate 40 kg/ha), 96%; in assay [3] (rate 8 kg/ha) it was 97%; in assay [3] (rate 40 kg/ha), 100%. Also, the “#cysts/plant” value was found to be 10 in assay [4] (rate 8 kg/ha) and 2 in assay [4] (rate 40 kg/ha). The results for the “% Galled Roots” value in assay [3] (rate 8 kg/ha) and in assay [3] (rate 40 kg/ha) were 2% and 0%, respectively.
With `CCCCCCCCCC(C)=O` [2-undecanone], the IC30 in assay [1] (24 h) stood at 50 µg/mL (≈ 294 µM); in assay [2] (4 h, read-out: IC30 C. elegans vs. L1) it was 6.3 µg/mL (≈ 37 µM); in assay [2] (4 h, read-out: IC30 C. elegans vs. L4), 25 µg/mL (≈ 147 µM). The “nematode control (in words)” value in assay [3] is “demonstrated nematode control”. Further, the “% Control” value in assay [3] (rate 8 kg/ha) stood at 35%; in assay [3] (rate 40 kg/ha), 65%. Also, the “% Galled Roots” value in assay [3] (rate 8 kg/ha) is 39%; in assay [3] (rate 40 kg/ha) it was 21%.

By IC30 is commonly meant the concentration at which the effect reaches the 30% level.

Values taken from patent publication US9006517B2, “Methods and compositions for plant pest control” (Monsanto Technology LLC, priority 2008, dated 2015).
